Measured values from patent US8012967B2, “Minor groove binders” (University of Strathclyde, priority 2006, dated 2011).
In brackets after ≈: the same amount, converted by molar mass. Like-named read-outs stand apart in the source and are kept apart here.

Legend:
Type in all cases: cell-based
[1] = system: Staphylococcus aureus Strain 1 (BSAC04(1)) (Clinical isolate from Glasgow Royal Infirmary); assay: MIC, Staphylococcus aureus Strain 1; conditions: Staphylococcus aureus, read-out: Minimum inhibitory concentrations (MICs), S aureus 1
Procedure: The effects of compounds of the invention in relation to inhibiting the growth of various microorganisms was determined using methods known to those skilled in the art, for example in vitro methods as described in J. Med. Chem. 47, 2133-2156 (2004) and in vivo methods as described in J. Med. Microbiol. 46, 208-213 (1997), the disclosures of which documents are hereby incorporated by reference.
In particular, minimum inhibitory concentrations (MICs) against microorganisms (e.g. S. Aureus, Streptococcus faecalis, Aspergillus niger, Candida albicans or Mycobacterium fortuitum) for compounds of the invention may be measured using procedures such as those described in A. J. Drummond and R. D. Waigh “The development of microbiological methods for phytochemical screening” Recent Res. Devel. Phytochem. 4, 143-152 (2000), the disclosures of which document are hereby incorporated by reference.
Sample dilutions were typically prepared by dissolving the test sample (2 mg) in sterile water (10 mL) to provide a working concentration of 200 μg/ml. The test wells on each 96 well microtitre plate were initially inoculated with culture medium (100 μL) using Mueller-Hinton Broth for antibacterial assays and Sabouraud Broth for antifungal assays. A solution of each test sample (100 μL) was added to one row of each plate and a series of doubling dilutions made for successive rows. Incubation was at 37° C. for antibacterial assay and 25° C. for antifungal assay. […] From the observed pattern of colour, the MIC was determined. All tests included sterility and growth controls.

[2] = system: Staphylococcus aureus Strain 2 (NCTC 6571); assay: MIC, Staphylococcus aureus Strain 2; conditions: for MIC: read-out: Minimum inhibitory concentrations (MICs), S. aureus 2
Procedure: (§1) The effects of compounds of the invention in relation to inhibiting the growth of various microorganisms was determined using methods known to those skilled in the art, for example in vitro methods as described in J. Med. Chem. 47, 2133-2156 (2004) and in vivo methods as described in J. Med. Microbiol. 46, 208-213 (1997), the disclosures of which documents are hereby incorporated by reference. In particular, minimum inhibitory concentrations (MICs) against microorganisms (e.g. S. Aureus, Streptococcus faecalis, Aspergillus niger, Candida albicans or Mycobacterium fortuitum) for compounds of the invention may be measured using procedures such as those described in A. J. Drummond and […] development of microbiological methods for phytochemical screening” Recent Res. Devel. […] The test wells on each 96 well microtitre plate were initially inoculated with culture medium (100 μL) using Mueller-Hinton Broth for antibacterial assays and Sabouraud Broth for antifungal assays. A solution of each test sample (100 μL) was added to one row of each plate and a series of doubling dilutions made for successive rows. Incubation was at 37° C. for antibacterial assay and 25° C. for antifungal assay. […] From the observed pattern of colour, the MIC was determined. All tests included sterility and growth controls.

[3] = system: Streptococcus faecalis (NCTC 775); assay: MIC, Streptococcus faecalis; conditions: for MIC: read-out: Minimum inhibitory concentrations (MICs), St. faecalis
Procedure: as §1

[4] = system: Aspergillus niger (IMI 1745); assay: MIC, Aspergillus niger; conditions: for MIC: read-out: Minimum inhibitory concentrations (MICs), A. niger
Procedure: as §1

[5] = system: Candida albicans (NCPF3179); assay: MIC, Candida albicans; conditions: for MIC: read-out: Minimum inhibitory concentrations (MICs), C. albicans
Procedure: as §1

[6] = value in parentheses, na = not active
[7] = Staphylococcus aureus, NCTC6571, value in parentheses, na = not active
[8] = Staphylococcus aureus, NCTC6571, value outside parentheses
[9] = Enterococcus faecalis, NCTC775, value in parentheses, na = not active
[10] = Enterococcus faecalis, NCTC775, value outside parentheses
[11] = Aspergillus niger, value in parentheses, na = not active
[12] = Aspergillus niger, value outside parentheses
[13] = Candida albicans, NCPF3179, value in parentheses, na = not active
[14] = Candida albicans, NCPF3179, value outside parentheses

SMILES	MIC [1, 6] [µg/mL]	MIC ([1]; value outside parentheses) [µM]	MIC [2, 7] [µg/mL]	MIC [2, 8] [µM]	MIC [3, 9] [µg/mL]	MIC [3, 10] [µM]	MIC [4, 11] [µg/mL]	MIC [4, 12] [µM]	further results
COc1cccc(/C=C/c2ccc(C(=O)Nc3cc(C(=O)Nc4cc(C(=O)NCCN5CCOCC5)n(C)c4)n(C)c3)cc2)c1 [Example 1, 4-({[4-({4-[(E)-2-(3-Methoxyphenyl)ethenyl]benzoyl}amino)-1-methyl-1H-pyrrol-2-yl]carbonyl}amino)-1-methyl-N-[2-(4-morpholinyl)ethyl]-1H-pyrrole-2-carboxamide]	2	2.7	8	11	50	69	100	138	–
Cn1cccc1/C=C/c1ccc(C(=O)Nc2cc(C(=O)Nc3cc(C(=O)NCCN4CCOCC4)n(C)c3)n(C)c2)cc1 [Example 3, 1-Methyl-N-[1-methyl-5-({[2-(4-morpholinyl)ethyl]amino}carbonyl)-1H-pyrrol-3-yl]-4-({4-[(E)-2-(1-methyl-1H-pyrrol-2-yl)ethenyl]benzoyl}amino)-1H-pyrrole-2-carboxamide]	4	5.7	16	22.9	12.5	16.4	100	143	–
COc1cccc(/C=C/c2ccc(C(=O)Nc3cc(C(=O)Nc4cc(C(=O)NCCCN(C)C)n(C)c4)n(C)c3)cc2)c1 [Example 4, N-[5-({[3-(Dimethylamino)propyl]amino}carbonyl)-1-methyl-1H-pyrrol-3-yl]-4-({4-[(E)-2-(3-methoxyphenyl)ethenyl]benzoyl}amino)-1-methyl-1H-pyrrole-2-carboxamide]	6.25	8.9	12.5	17.9	–	–	50	72	MIC [5, 13]: 100 µg/mL; MIC [5, 14]: 143 µM
CN(C)CCCNC(=O)c1cc(NC(=O)c2cc(NC(=O)c3ccc(/C=C/c4cnc5ccccc5c4)cc3)cn2C)cn1C [Example 5, N-[5-({[3-(Dimethylamino)propyl]amino}carbonyl)-1-methyl-1H-pyrrol-3-yl]-1-methyl-4-({4-[(E)-2-(3-quinolinyl)ethenyl]benzoyl}amino)-1H-pyrrole-2-carboxamide]	25	35	25	35	50	70	50	70	–
COc1cccc(/C=C/c2cccc(C(=O)Nc3cc(C(=O)Nc4cc(C(=O)NCCCN(C)C)n(C)c4)n(C)c3)c2)c1 [Example 6]	–	–	–	–	–	–	–	–	Minimum inhibitory concentrations (MICs), S. aureus 2 [2, 6]: 50 µg/mL (≈ 85.8 µM); MIC ([2]; value outside parentheses): 72 µM; Minimum inhibitory concentrations (MICs), St. faecalis [3, 6]: 50 µg/mL (≈ 85.8 µM); MIC ([3]; value outside parentheses): 72 µM; Minimum inhibitory concentrations (MICs), A. niger [4, 6]: 100 µg/mL (≈ 172 µM); MIC ([4]; value outside parentheses): 143 µM
CN(C)CCCNC(=O)c1cc(NC(=O)c2cc(NC(=O)c3ccc(/C=C/c4ccncc4)cc3)cn2C)cn1C [Example 7, N-[5-({[3-(Dimethylamino)propyl]amino}carbonyl)-1-methyl-1H-pyrrol-3-yl]-1-methyl-4-({4-[(E)-2-(4-pyridinyl)ethenyl]benzoyl}amino)-1H-pyrrole-2-carboxamide]	16	24	50	75	25	37	–	–	–
CN(C)CCCNC(=O)c1cc(NC(=O)c2cc(NC(=O)c3cc(/C=C/c4ccc([N+](=O)[O-])cc4)cn3C)cn2C)cn1C [Example 8, N-[5-({[5-({[3-(Dimethylamino)propyl]amino}carbonyl)-1-methyl-1H-pyrrol-3-yl]amino}carbonyl)-1-methyl-1H-pyrrol-3-yl]-1-methyl-4-[(E)-2-(4-nitrophenyl)-ethenyl]-1H-pyrrole-2-carboxamide]	–	–	50	70	50	70	100	140	–
Cn1cc(NC(=O)c2cc(NC(=O)c3cc(/C=C/c4ccc5ccccc5n4)cn3C)cn2C)cc1C(=O)NCCN1CCOCC1 [Example 11, 1-Methyl-N-[1-methyl-5-({[2-(4-morpholinyl)ethyl]amino}carbonyl)-1H-pyrrol-3-yl]-4-[({1-methyl-4-[(E)-2-(2-quinolinyl)ethenyl]-1H-pyrrol-2-yl}carbonyl)-amino]-1H-pyrrole-2-carboxamide]	4	4.6	–	–	–	–	–	–	MIC [5, 13]: 100 µg/mL; MIC [5, 14]: 134 µM
Cn1cc(NC(=O)c2cc(NC(=O)c3csc(/C=C/c4ccc5ccccc5n4)n3)cn2C)cc1C(=O)NCCN1CCOCC1 [Example 12, N-[1-Methyl-5-({[1-methyl-5-({[2-(4-morpholinyl)ethyl]amino}carbonyl)-1H-pyrrol-3-yl]amino}carbonyl)-1H-pyrrol-3-yl]-2-[(E)-2-(2-quinolinyl)ethenyl]-1,3-thiazole-4-carboxamide]	8	10	–	–	–	–	–	–	–
Cn1cc(NC(=O)c2cc(NC(=O)c3ccc(/C=C/c4ccc5ccccc5c4)cc3)cn2C)cc1C(=O)NCCN1CCOCC1 [Example 13, 1-Methyl-N-[1-methyl-5-({[2-(4-morpholinyl)ethyl]amino}carbonyl)-1H-pyrrol-3-yl]-4-({4-[(E)-2-(2-naphthyl)ethenyl]benzoyl}amino)-1H-pyrrole-2-carboxamide]	–	–	50	68	100	136	100	136	–
Cn1cc(NC(=O)c2cc(NC(=O)c3ccc(/C=C/c4cc5ccccc5nc4On4nnc5ccccc54)cc3)cn2C)cc1C(=O)NCCN1CCOCC1 [Example 14, 4-[(4-{(E)-2-[2-(1H-1,23-Benzotriazol-1-yloxy)-3-quinolinyl]ethenyl}benzoyl)-amino]-1-methyl-N-[1-methyl-5-({[2-(4-morpholinyl)ethyl]amino}carbonyl)-1H-pyrrol-3-yl]-1H-pyrrole-2-carboxamide]	–	–	–	–	–	–	–	–	Minimum inhibitory concentrations (MICs), S. aureus 2 [2, 6]: 50 µg/mL (≈ 65.4 µM); MIC ([2]; value outside parentheses): 57 µM; Minimum inhibitory concentrations (MICs), St. faecalis [3, 6]: 100 µg/mL (≈ 131 µM); MIC ([3]; value outside parentheses): 114 µM; Minimum inhibitory concentrations (MICs), C. albicans [5, 6]: 100 µg/mL (≈ 131 µM); MIC ([5]; value outside parentheses): 114 µM; Minimum inhibitory concentrations (MICs), A. niger [4, 6]: 50 µg/mL (≈ 65.4 µM); MIC ([4]; value outside parentheses): 57 µM
Cn1cc(NC(=O)c2cc(NC(=O)c3ccc(/C=C/c4ccc5ccccc5n4)cc3)cn2C)cc1C(=O)NCCN1CCOCC1 [Example 15]	–	–	–	–	–	–	–	–	Minimum inhibitory concentrations (MICs), S. aureus 2 [2, 6]: 100 µg/mL (≈ 158 µM); MIC ([2]; value outside parentheses): 134 µM; Minimum inhibitory concentrations (MICs), C. albicans [5, 6]: 100 µg/mL (≈ 158 µM); MIC ([5]; value outside parentheses): 134 µM; Minimum inhibitory concentrations (MICs), A. niger [4, 6]: 100 µg/mL (≈ 158 µM); MIC ([4]; value outside parentheses): 134 µM
CC(C)CCc1sc(NC(=O)c2cc(NC(=O)c3ccc(/C=C/c4ccc5ccccc5n4)cc3)cn2C)nc1C(=O)NCCN1CCOCC1 [Example 19, 5-Isopentyl-2-({[1-methyl-4-({4-[(E)-2-(2-quinolinyl)ethenyl]benzoyl}amino)-1H-pyrrol-2-yl]carbonyl}amino)-N-[2-(4-morpholinyl)ethyl]-1,3-thiazole-4-carboxamide]	–	–	–	–	–	–	100	122	–
